# Reference: paper PMC3673835, “Synthesis and biological evaluation of 1, 3-dihydroxyxanthone mannich base derivatives as anticholinesterase agents” (Chemistry Central Journal, 2013)
# Where two headings read alike, the source gives them in different places.
# Key:
# [1] = target: Electric-eel AChE (EC 3.1.1.7) (Electrophorus electricus, UniProt O42275); experiment: biochemical; conditions: means ± standard deviation of triplicate independent experiments; substrate acetylthiocholine iodide; 37°C, pH 8.0
# Sequence of Electric-eel AChE (EC 3.1.1.7) (O42275 24-633): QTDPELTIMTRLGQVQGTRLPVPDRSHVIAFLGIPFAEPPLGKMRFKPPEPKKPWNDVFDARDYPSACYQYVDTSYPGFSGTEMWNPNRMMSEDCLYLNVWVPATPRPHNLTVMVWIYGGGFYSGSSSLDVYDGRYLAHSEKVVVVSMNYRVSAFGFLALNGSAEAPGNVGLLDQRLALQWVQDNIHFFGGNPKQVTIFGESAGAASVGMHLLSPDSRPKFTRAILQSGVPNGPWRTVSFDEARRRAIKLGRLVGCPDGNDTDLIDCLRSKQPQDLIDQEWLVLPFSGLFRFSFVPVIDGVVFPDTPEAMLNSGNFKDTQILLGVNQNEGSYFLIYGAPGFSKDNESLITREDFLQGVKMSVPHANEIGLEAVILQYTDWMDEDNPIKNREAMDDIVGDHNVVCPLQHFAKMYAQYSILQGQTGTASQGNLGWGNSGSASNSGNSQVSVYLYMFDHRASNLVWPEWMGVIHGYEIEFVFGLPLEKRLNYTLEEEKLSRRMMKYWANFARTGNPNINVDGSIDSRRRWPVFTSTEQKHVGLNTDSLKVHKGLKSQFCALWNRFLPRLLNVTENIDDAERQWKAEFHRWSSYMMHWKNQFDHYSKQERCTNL
# [2] = target: horse-serum BuChE (EC3.1.1.8) (Equus caballus, UniProt P81908); experiment: biochemical; type: biochemical; conditions: for Selectivity for BuChE/AChE: ratio IC50 BuChE / IC50 AChE; for IC50: substrate butyrylthiocholine, 37°C, pH 8.0
# Sequence of horse-serum BuChE (EC3.1.1.8) (P81908 whole entry): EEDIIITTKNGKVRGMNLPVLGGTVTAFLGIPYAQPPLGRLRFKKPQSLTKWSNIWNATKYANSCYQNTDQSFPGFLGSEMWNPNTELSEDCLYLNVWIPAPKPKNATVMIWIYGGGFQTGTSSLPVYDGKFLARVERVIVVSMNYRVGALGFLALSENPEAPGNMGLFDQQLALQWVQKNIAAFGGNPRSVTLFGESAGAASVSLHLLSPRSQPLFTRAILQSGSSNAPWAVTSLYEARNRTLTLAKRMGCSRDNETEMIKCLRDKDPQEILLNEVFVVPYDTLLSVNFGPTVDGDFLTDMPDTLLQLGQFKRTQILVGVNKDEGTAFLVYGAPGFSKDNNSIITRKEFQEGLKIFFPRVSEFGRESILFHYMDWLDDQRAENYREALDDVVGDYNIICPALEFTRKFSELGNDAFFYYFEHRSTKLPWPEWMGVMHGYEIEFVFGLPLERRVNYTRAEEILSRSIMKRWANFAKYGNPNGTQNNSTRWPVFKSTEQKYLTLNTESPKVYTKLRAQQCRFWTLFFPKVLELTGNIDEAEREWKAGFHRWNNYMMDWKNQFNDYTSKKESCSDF
# AChE = target: T1, AChE (Electrophorus electricus, UniProt O42275); experiment: Enzyme kinetic assay on AChE (Lineweaver-Burk plots); type: biochemical, Electric-eel; conditions: curves intersect at the secondary quadrant
# T1 construct: purchased Sigma
# T1 sequence (O42275 24-633): as the sequence (O42275 24-633) above
# BuChE = BuChE (Equus caballus, UniProt P81908); type: biochemical; conditions: Lineweaver-Burk plots, curves intersect at the secondary quadrant
# Sequence of BuChE (P81908 whole entry): as the sequence (P81908 whole entry) above
# [3] = listed as 2-((diethylamino)methyl)-1-hydroxy-3-(3-methylbut-2-enyloxy)-9H-xanthen-9-one
Compound,IC50 [1] [µM],Selectivity for BuChE/AChE [2],IC50 [2] [µM],Inhibition activity against BuChE at 100 μM [2],Inhibition mode on AChE (AChE),Inhibition mode on AChE (AChE; [3]),Inhibition mode on BuChE (BuChE),Inhibition mode on BuChE (BuChE; [3])
"CN(C)Cc1c(O)cc2oc3ccccc3c(=O)c2c1O [1a, 2-((dimethylamino)methyl)-1,3-dihydroxy-9H-xanthen-9-one]",107 ± 5.78,0.59,62.9 ± 0.84,–,–,–,–,–
"CCN(CC)Cc1c(O)cc2oc3ccccc3c(=O)c2c1O [1b, 2-((diethylamino)methyl)-1,3-dihydroxy-9H-xanthen-9-one]",73.7 ± 1.36,0.50,37 ± 0.56,–,–,–,–,–
"O=c1c2ccccc2oc2cc(O)c(CN3CCCC3)c(O)c12 [1c, 1,3-dihydroxy-2-(pyrrolidin-1-ylmethyl)-9H-xanthen-9-one]",81.9 ± 2.04,0.43,35.5 ± 1.68,–,–,–,–,–
"O=c1c2ccccc2oc2cc(O)c(CN3CCCCC3)c(O)c12 [1d, 1,3-dihydroxy-2-(piperidin-1-ylmethyl)-9H-xanthen-9-one]",79.3 ± 5.78,0.54,43 ± 1.76,–,–,–,–,–
"O=c1c2ccccc2oc2cc(O)c(CN3CCOCC3)c(O)c12 [1e, 1,3-dihydroxy-2-(morpholinomethyl)-9H-xanthen-9-one]",95.4 ± 1.7,>1.05,> 100,did not show any inhibition activity,–,–,–,–
"COc1cc2oc3ccccc3c(=O)c2c(O)c1CN(C)C [2a, 2-((dimethylamino)methyl)-1-hydroxy-3-methoxy-9H-xanthen-9-one]",2.34 ± 0.2,4.66,10.9 ± 0.2,–,–,–,–,–
"CCN(CC)Cc1c(OC)cc2oc3ccccc3c(=O)c2c1O [2b, 2-((diethylamino)methyl)-1-hydroxy-3-methoxy-9H-xanthen-9-one]",2.4 ± 0.49,2.83,6.79 ± 0.56,–,–,–,–,–
"COc1cc2oc3ccccc3c(=O)c2c(O)c1CN1CCCC1 [2c, 1-hydroxy-3-methoxy-2-(pyrrolidin-1-ylmethyl)-9H-xanthen-9-one]",4.2 ± 0.29,1.72,7.21 ± 0.75,–,–,–,–,–
"COc1cc2oc3ccccc3c(=O)c2c(O)c1CN1CCCCC1 [2d, 1-hydroxy-3-methoxy-2-(piperidin-1-ylmethyl)-9H-xanthen-9-one]",7 ± 0.07,1.53,10.6 ± 0.22,–,–,–,–,–
"COc1cc2oc3ccccc3c(=O)c2c(O)c1CN1CCOCC1 [2e, 1-hydroxy-3-methoxy-2-(morpholinomethyl)-9H-xanthen-9-one]",7.76 ± 2.36,>12.89,> 100,did not show any inhibition activity,–,–,–,–
"C=CCOc1cc2oc3ccccc3c(=O)c2c(O)c1CN(C)C [3a, 3-allyloxy-2-((dimethylamino)methyl)-1-hydroxy-9H-xanthen-9-one]",5.84 ± 1.19,0.80,4.66 ± 0.64,–,–,–,–,–
"C=CCOc1cc2oc3ccccc3c(=O)c2c(O)c1CN(CC)CC [3b, 3-allyloxy-2-((diethylamino)methyl)-1-hydroxy-9H-xanthen-9-one]",6 ± 0.33,0.26,1.54 ± 0.14,–,–,–,–,–
"C=CCOc1cc2oc3ccccc3c(=O)c2c(O)c1CN1CCCC1 [3c, 3-allyloxy-1-hydroxy-2-(pyrrolidin-1-ylmethyl)-9H-xanthen-9-one]",4.36 ± 0.58,0.70,3.05 ± 0.13,–,–,–,–,–
"C=CCOc1cc2oc3ccccc3c(=O)c2c(O)c1CN1CCCCC1 [3d, 3-allyloxy-1-hydroxy-2-(piperidin-1-ylmethyl)-9H-xanthen-9-one]",3.7 ± 0.16,0.47,1.73 ± 0.08,–,–,–,–,–
"C=CCOc1cc2oc3ccccc3c(=O)c2c(O)c1CN1CCOCC1 [3e, 3-allyloxy-1-hydroxy-2-(morpholinomethyl)-9H-xanthen-9-one]",74.7 ± 4.07,>1.34,> 100,did not show any inhibition activity,–,–,–,–
"CC(C)=CCOc1cc2oc3ccccc3c(=O)c2c(O)c1CN(C)C [4a, 2-((dimethylamino)methyl)-1-hydroxy-3-(3-methylbut-2-enyloxy)-9H-xanthen-9-one]",2.63 ± 0.07,0.57,1.49 ± 0.03,–,–,–,–,–
"CCN(CC)Cc1c(OCC=C(C)C)cc2oc3ccccc3c(=O)c2c1O [4b, 2-((diethylamino)methyl)-1-hydroxy-3-(3-methylbut-2-enyloxy)-9H-xanthen-9-one]",2.61 ± 0.13,0.20,0.51 ± 0.01,–,mixed-type inhibition,mixed-type manner,mixed-type inhibition,mixed-type manner
"CC(C)=CCOc1cc2oc3ccccc3c(=O)c2c(O)c1CN1CCCC1 [4c, 1-hydroxy-3-(3-methylbut-2-enyloxy)-2-(pyrrolidin-1-ylmethyl)-9H-xanthen-9-one]",5.85 ± 0.32,0.49,2.89 ± 0.07,–,–,–,–,–
"CC(C)=CCOc1cc2oc3ccccc3c(=O)c2c(O)c1CN1CCCCC1 [4d, 1-hydroxy-3-(3-methylbut-2-enyloxy)-2-(piperidin-1-ylmethyl)-9H-xanthen-9-one]",55.3 ± 8.15,0.10,5.61 ± 0.08,–,–,–,–,–
CC(C)=CCOc1cc2oc3ccccc3c(=O)c2c(O)c1CN1CCOCC1 [4e],24.2 ± 0.4,0.37,8.83 ± 0.36,–,–,–,–,–
